# Results reported in ChEMBL document CHEMBL3600337, “Chemoenzymatic synthesis and cytotoxicity of oenanthotoxin and analogues” (Bioorg Med Chem, 2015).
# System: not listed separately
# Assay: Cytotoxicity against mouse NIH/3T3 cells after 96 hrs by sulforhodamine B assay
# Type: cell-based
# Conditions: NIH3T3, 96 h
row,SMILES,EC50
1,CCCC(=O)CC/C=C/C=C/C#CC#C/C=C/CO,11.1 µM
2,CCC[C@@H](O)CC/C=C/C=C/C#CC#C/C=C/COC(C)=O,16.9 µM
3,CCC[C@@H](CC/C=C/C=C/C#CC#C/C=C/COC(C)=O)OC(C)=O,11.8 µM
4,CCCC(=O)CC/C=C/C=C/C#CC#C/C=C/COC(C)=O,14.2 µM
5,CCCC(=O)CC/C=C/C=C/C#CC#C/C=C/COC(=O)c1ccccc1,26.7 µM
6,CCCC(=O)CC/C=C/C=C/C#CC#C/C=C/COC(=O)CCl,11.9 µM
7,CCCC(=O)CC/C=C/C=C/C#CC#C/C=C/C=O,13.2 µM
8,CCCC(=O)CC/C=C/C=C/C#CC#C/C=C/C(=O)O,> 30 µM
9,C=C(C)[C@@H]1CC[C@]2(C(=O)O)CC[C@]3(C)[C@H](CC[C@@H]4[C@@]5(C)CC[C@H](O)C(C)(C)[C@@H]5CC[C@]43C)[C@@H]12 [BETULINIC ACID],10 µM
10,CCC[C@@H](O)CC/C=C/C=C/C#CC#C/C=C/CO [OENANTHOTOXIN],10.1 µM

# System: not listed separately
# Assay: Cytotoxicity against human 518A2 cells after 96 hrs by sulforhodamine B assay
# Type: functional, cell-based
# Conditions: 518A2, 96 h
row,SMILES,EC50
1,CCCC(=O)CC/C=C/C=C/C#CC#C/C=C/CO,19.1 µM
2,CCC[C@@H](O)CC/C=C/C=C/C#CC#C/C=C/COC(C)=O,14.9 µM
3,CCC[C@@H](CC/C=C/C=C/C#CC#C/C=C/COC(C)=O)OC(C)=O,14.7 µM
4,CCCC(=O)CC/C=C/C=C/C#CC#C/C=C/COC(C)=O,9.1 µM
5,CCCC(=O)CC/C=C/C=C/C#CC#C/C=C/COC(=O)c1ccccc1,20.5 µM
6,CCCC(=O)CC/C=C/C=C/C#CC#C/C=C/COC(=O)CCl,12.6 µM
7,CCCC(=O)CC/C=C/C=C/C#CC#C/C=C/C=O,> 30 µM
8,CCCC(=O)CC/C=C/C=C/C#CC#C/C=C/C(=O)O,> 30 µM
9,C=C(C)[C@@H]1CC[C@]2(C(=O)O)CC[C@]3(C)[C@H](CC[C@@H]4[C@@]5(C)CC[C@H](O)C(C)(C)[C@@H]5CC[C@]43C)[C@@H]12 [BETULINIC ACID],11.9 µM
10,CCC[C@@H](O)CC/C=C/C=C/C#CC#C/C=C/CO [OENANTHOTOXIN],17.1 µM

# System: 8505C
# Assay: Cytotoxicity against human 8505C cells after 96 hrs by sulforhodamine B assay
# Type: functional, cell-based
# Conditions: not given
row,SMILES,EC50
1,CCCC(=O)CC/C=C/C=C/C#CC#C/C=C/CO,18 µM
2,CCC[C@@H](O)CC/C=C/C=C/C#CC#C/C=C/COC(C)=O,20.3 µM
3,CCC[C@@H](CC/C=C/C=C/C#CC#C/C=C/COC(C)=O)OC(C)=O,16.8 µM
4,CCCC(=O)CC/C=C/C=C/C#CC#C/C=C/COC(C)=O,15.6 µM
5,CCCC(=O)CC/C=C/C=C/C#CC#C/C=C/COC(=O)c1ccccc1,4.2 µM
6,CCCC(=O)CC/C=C/C=C/C#CC#C/C=C/COC(=O)CCl,19.3 µM
7,CCCC(=O)CC/C=C/C=C/C#CC#C/C=C/C=O,7.1 µM
8,CCCC(=O)CC/C=C/C=C/C#CC#C/C=C/C(=O)O,19.3 µM
9,C=C(C)[C@@H]1CC[C@]2(C(=O)O)CC[C@]3(C)[C@H](CC[C@@H]4[C@@]5(C)CC[C@H](O)C(C)(C)[C@@H]5CC[C@]43C)[C@@H]12 [BETULINIC ACID],6.7 µM
10,CCC[C@@H](O)CC/C=C/C=C/C#CC#C/C=C/CO [OENANTHOTOXIN],10.5 µM

# System: A2780
# Assay: Cytotoxicity against human A2780 cells after 96 hrs by sulforhodamine B assay
# Type: functional, cell-based
# Conditions: A2780, 96 h
row,SMILES,EC50
1,CCCC(=O)CC/C=C/C=C/C#CC#C/C=C/CO,4.9 µM
2,CCC[C@@H](O)CC/C=C/C=C/C#CC#C/C=C/COC(C)=O,6.8 µM
3,CCC[C@@H](CC/C=C/C=C/C#CC#C/C=C/COC(C)=O)OC(C)=O,3.9 µM
4,CCCC(=O)CC/C=C/C=C/C#CC#C/C=C/COC(C)=O,4.7 µM
5,CCCC(=O)CC/C=C/C=C/C#CC#C/C=C/COC(=O)c1ccccc1,> 30 µM
6,CCCC(=O)CC/C=C/C=C/C#CC#C/C=C/COC(=O)CCl,3.6 µM
7,CCCC(=O)CC/C=C/C=C/C#CC#C/C=C/C=O,7 µM
8,CCCC(=O)CC/C=C/C=C/C#CC#C/C=C/C(=O)O,> 30 µM
9,C=C(C)[C@@H]1CC[C@]2(C(=O)O)CC[C@]3(C)[C@H](CC[C@@H]4[C@@]5(C)CC[C@H](O)C(C)(C)[C@@H]5CC[C@]43C)[C@@H]12 [BETULINIC ACID],11 µM
10,CCC[C@@H](O)CC/C=C/C=C/C#CC#C/C=C/CO [OENANTHOTOXIN],3.8 µM

# System: MCF7
# Assay: Cytotoxicity against human MCF7 cells after 96 hrs by sulforhodamine B assay
# Type: functional, cell-based
# Conditions: MCF7, 96 h
row,SMILES,EC50
1,CCCC(=O)CC/C=C/C=C/C#CC#C/C=C/CO,234 µM
2,CCC[C@@H](O)CC/C=C/C=C/C#CC#C/C=C/COC(C)=O,21.3 µM
3,CCC[C@@H](CC/C=C/C=C/C#CC#C/C=C/COC(C)=O)OC(C)=O,12.4 µM
4,CCCC(=O)CC/C=C/C=C/C#CC#C/C=C/COC(C)=O,21.6 µM
5,CCCC(=O)CC/C=C/C=C/C#CC#C/C=C/COC(=O)c1ccccc1,> 30 µM
6,CCCC(=O)CC/C=C/C=C/C#CC#C/C=C/COC(=O)CCl,26.9 µM
7,CCCC(=O)CC/C=C/C=C/C#CC#C/C=C/C=O,5.9 µM
8,CCCC(=O)CC/C=C/C=C/C#CC#C/C=C/C(=O)O,> 30 µM
9,C=C(C)[C@@H]1CC[C@]2(C(=O)O)CC[C@]3(C)[C@H](CC[C@@H]4[C@@]5(C)CC[C@H](O)C(C)(C)[C@@H]5CC[C@]43C)[C@@H]12 [BETULINIC ACID],14.9 µM
10,CCC[C@@H](O)CC/C=C/C=C/C#CC#C/C=C/CO [OENANTHOTOXIN],20.6 µM

# System: A549
# Assay: Cytotoxicity against human A549 cells after 96 hrs by sulforhodamine B assay
# Type: functional, cell-based
# Conditions: A549, 96 h
row,SMILES,EC50
1,CCCC(=O)CC/C=C/C=C/C#CC#C/C=C/CO,19.7 µM
2,CCC[C@@H](O)CC/C=C/C=C/C#CC#C/C=C/COC(C)=O,20.5 µM
3,CCC[C@@H](CC/C=C/C=C/C#CC#C/C=C/COC(C)=O)OC(C)=O,14.5 µM
4,CCCC(=O)CC/C=C/C=C/C#CC#C/C=C/COC(C)=O,56.4 µM
5,CCCC(=O)CC/C=C/C=C/C#CC#C/C=C/COC(=O)c1ccccc1,14.4 µM
6,CCCC(=O)CC/C=C/C=C/C#CC#C/C=C/COC(=O)CCl,5.1 µM
7,CCCC(=O)CC/C=C/C=C/C#CC#C/C=C/C=O,> 30 µM
8,CCCC(=O)CC/C=C/C=C/C#CC#C/C=C/C(=O)O,> 30 µM
9,C=C(C)[C@@H]1CC[C@]2(C(=O)O)CC[C@]3(C)[C@H](CC[C@@H]4[C@@]5(C)CC[C@H](O)C(C)(C)[C@@H]5CC[C@]43C)[C@@H]12 [BETULINIC ACID],14.8 µM
10,CCC[C@@H](O)CC/C=C/C=C/C#CC#C/C=C/CO [OENANTHOTOXIN],10.9 µM

# System: HT-29
# Assay: Cytotoxicity against human HT-29 cells after 96 hrs by sulforhodamine B assay
# Type: functional, cell-based
# Conditions: HT-29, 96 h
row,SMILES,EC50
1,CCCC(=O)CC/C=C/C=C/C#CC#C/C=C/CO,21.2 µM
2,CCC[C@@H](O)CC/C=C/C=C/C#CC#C/C=C/COC(C)=O,26.3 µM
3,CCC[C@@H](CC/C=C/C=C/C#CC#C/C=C/COC(C)=O)OC(C)=O,17.9 µM
4,CCCC(=O)CC/C=C/C=C/C#CC#C/C=C/COC(C)=O,> 30 µM
5,CCCC(=O)CC/C=C/C=C/C#CC#C/C=C/COC(=O)c1ccccc1,7.9 µM
6,CCCC(=O)CC/C=C/C=C/C#CC#C/C=C/COC(=O)CCl,> 30 µM
7,CCCC(=O)CC/C=C/C=C/C#CC#C/C=C/C=O,22.2 µM
8,CCCC(=O)CC/C=C/C=C/C#CC#C/C=C/C(=O)O,> 30 µM
9,C=C(C)[C@@H]1CC[C@]2(C(=O)O)CC[C@]3(C)[C@H](CC[C@@H]4[C@@]5(C)CC[C@H](O)C(C)(C)[C@@H]5CC[C@]43C)[C@@H]12 [BETULINIC ACID],13.1 µM
10,CCC[C@@H](O)CC/C=C/C=C/C#CC#C/C=C/CO [OENANTHOTOXIN],> 30 µM
